Source: US4598077A, “Amidine derivatives and cardiotonic compositions” (Torii & Co. Ltd., priority 1983, dated 1986)
Structures can show the parent of a compound that is named as a salt. Where two headings read alike, the source gives them in different places.

Assays:
[1] = test system: right atrium preparation; assay: Isolated, blood-perfused right atrium preparation, sinus rate (Table 1); parameters: species or system Mongrel dogs; conditions: Canis lupus familiaris, close-arterial injection, read-out: Right atrium preparation, % increase in sinus rate; for activation at 0.03 mg: dose 30 μg; for activation at 0.1 mg: dose 100 μg; for activation at 0.3 mg: dose 300 μg
Method: Mongrel dogs of either sex weighting 7.5-10 kg were anesthetized with sodium pentobarbital (30 mg/kg, i.v.). Each animal was given an intravenous dose of sodium heparin (500 units/kg), thereafter, the heart was removed and placed in cold Tyrode solution. The isolated and cross-circulated right atrium and papillary muscle preparations were arranged for perfusion from a donor dog as follows. The donor dog was also anesthetized with sodium pentobarbital (30 mg/kg, i.v.); heparin (500 units/kg) was given intravenously immediately before the perfusion began. (b) The isolated, blood-perfused right atrium preparation. The sinus node artery was cannulated at its origin in the right coronary artery. A right atrial electrogram was obtained from bipolar electrodes which were placed in close proximity to the sinoatrial node. The sinus rate was recorded by a cardiotachometer triggered by the right atrial electrogram. The details of the bloodperfused right atrium preparation have been described by Chiba et al. (Tohoku J. exp. Med., 107, 101-102 (1972) and Kubota and Hashimoto (Naunyn-Schmiedeberg's Arch. Pharmacol., 278, 135-150 (1973)). Each preparation was perfused with the arterial blood from the carotid artery of the donor dog at a constant perfusion pressure of 100 mmHg by means of a peristaltic pump. The venous effluent from the preparations was collected in a reservoir and returned to the donor dog through the jugular vein. Test compounds used in these experiments were dissolved in vehicle solution and were injected closearterially to the preparations. The effects of each compound on the developed tension and sinuo rate were evaluated as a percentage change in values determined before and after administration of the compound. In Table 1 are shown such changes in terms of the percentage increase after administration.

[2] = test system: papillary muscle preparation; assay: Isolated, blood-perfused papillary muscle preparation, developed tension (Table 1); parameters: species or system Mongrel dogs; conditions: Canis lupus familiaris, close-arterial injection, read-out: Papillary muscle preparation, % increase in developed tension; for activation at 0.03 mg: dose 30 μg; for activation at 0.1 mg: dose 100 μg; for activation at 0.3 mg: dose 300 μg
Method: Mongrel dogs of either sex weighting 7.5-10 kg were anesthetized with sodium pentobarbital (30 mg/kg, i.v.). Each animal was given an intravenous dose of sodium heparin (500 units/kg), thereafter, the heart was removed and placed in cold Tyrode solution. The isolated and cross-circulated right atrium and papillary muscle preparations were arranged for perfusion from a donor dog as follows. The donor dog was also anesthetized with sodium pentobarbital (30 mg/kg, i.v.); heparin (500 units/kg) was given intravenously immediately before the perfusion began. (a) The isolated, blood-perfused papillary muscle preparation. The anterior septal artery was dissected and cannulated with polyethylene tubing. The tendinous end of the papillary muscle was connected to a strain-gauge transducer by a fine silk thread and the muscles were under about 2 g of resting tension. The papillary muscle preparation was electrically driven at a constant frequency of 120/min with rectangular pulses of 1-3 V and 5 msec duration. The preparation of the blood-perfused papillary muscle has been described in detail by Endoh and Hashimoto Am. J. Physiol, 218, 1459-1463 (1970). Each preparation was perfused with the arterial blood from the carotid artery of the donor dog at a constant perfusion pressure of 100 mmHg by means of a peristaltic pump. The venous effluent from the preparations was collected in a reservoir and returned to the donor dog through the jugular vein. Test compounds used in these experiments were dissolved in vehicle solution and were injected closearterially to the preparations. The effects of each compound on the developed tension and sinuo rate were evaluated as a percentage change in values determined before and after administration of the compound. In Table 1 are shown such changes in terms of the percentage increase after administration.

[3] = test system: anesthetized open-chest dogs; assay: Cardiovascular effect in anesthetized open-chest dogs (Table 2); assay type: in vivo, Mongrel dogs; conditions: femoral vein; for change in vivo at 0.1 mg/kg / change in vivo at 0.3 mg/kg / change in vivo at 0.01 mg/kg / change in vivo at 0.03 mg/kg: Canis lupus familiaris, iv
Method: Mongrel dogs of either sex weighing 9-15 kg were anesthetized with sodium pentobarbital (30 mg/kg, i.v.). The heart was exposed by thoractomy by the left fifth intercostal incision under artificial respiration. Aortic flow was measured by the probe of electromagnetic flowmeter placed around the ascending aorta. Myocardial contractility was measured by the maximal rate of rise of left ventricular pressure which was recorded from a needle inserted into the ventricular cavity. The systemic blood pressure was measured with a pressure transducer by means of a polyethylene cannular inserted into the femoral artery. The heart rate was recorded by a cardiotrachometer triggered by R wave of electrocargiogram (Lead II). Test compounds were dissolved in vehicle solution and were injected into the femoral vein. The effects of each compound on the cardiac contractility and aortic flow were evaluated as a percentage change in values determined before and after administration of the compound. In Table 2 are shown such changes in terms of the percentage increase after administration.

[4] = 0.1 mg/kg, read-out: Increase in aortic flow (%)
[5] = 0.1 mg/kg, read-out: Increase in cardiac contractility (%)
[6] = 0.3 mg/kg, read-out: Increase in aortic flow (%)
[7] = 0.3 mg/kg, read-out: Increase in cardiac contractility (%)
[8] = read-out: Increase in aortic flow (%)
[9] = read-out: Increase in cardiac contractility (%)

SMILES | activation at 0.03 mg [1] | activation at 0.1 mg [1] | activation at 0.03 mg [2] | activation at 0.1 mg [2] | change in vivo at 0.1 mg/kg [3, 4] | change in vivo at 0.1 mg/kg [3, 5] | change in vivo at 0.3 mg/kg [3, 6] | change in vivo at 0.3 mg/kg [3, 7] | change in vivo at 0.01 mg/kg [3, 8] | change in vivo at 0.01 mg/kg [3, 9] | change in vivo at 0.03 mg/kg [3, 8] | change in vivo at 0.03 mg/kg [3, 9] | % decrease in cardiac contractility (in parentheses) ([3]; 0.3 mg/kg) | activation at 0.3 mg [1] | activation at 0.3 mg [2] | % decrease in aortic flow (in parentheses) ([3]; 0.1 mg/kg) | % decrease in cardiac contractility (in parentheses) ([3]; 0.1 mg/kg) | % decrease in aortic flow (in parentheses) ([3]; 0.3 mg/kg)
CNC(=N)c1ccc(CCc2ccc(CN)cc2)cc1 [Compound 1, 4-[2-(4-aminomethylphenyl)ethyl]-N-methylbenzamidine dihydrochloride] | 26.2% | 34.1% | 44.1% | 78.1% | 30.4% | 42.1% | 38.8% | 57.5% | – | – | – | – | – | – | – | – | – | –
CNC(=N)c1ccc(CCc2ccc(CN)cc2OC)cc1 [Compound 3, 4-[2-(4-Aminomethyl-2-methoxyphenyl)ethyl]-N-methylbenzamidine dihydrochloride] | 17.9% | 32.5% | 73.3% | 115% | – | – | – | – | 4.1% | 14% | 21.7% | 24.6% | – | – | – | – | – | –
CCCCNC(=N)c1ccc(CCc2ccc(CN)cc2)cc1.Cl.Cl [Compound 4, 4-[2-(4-Aminomethylphenyl)ethyl]-N-n-butyl-benzamidine dihydrochloride] | 19% | 30.6% | 45.8% | 76.5% | 20% | 26.1% | 50% | 52.9% | – | – | – | – | -3.4% | – | – | – | – | –
N=C(NCCc1ccccn1)c1ccc(CCc2ccc(CN)cc2)cc1 [Compound 6, 4-[2-(4-Aminomethylphenyl)ethyl]-N-[2-(2-pyridyl)ethyl]benzamidine trihydrochloride] | – | 7.5% | – | 57.7% | 6.5% | 18% | – | – | – | – | 1.8% | 5.2% | – | 18.3% | 93.5% | – | – | –
CNC(=N)c1ccc(C=Cc2ccc(CN)cc2)cc1 [Compound 7, 4-[2-(4-aminomethylphenyl)ethenyl]-N-methylbenzamidine dihydrochloride] | – | 8.3% | – | 44.7% | 4.2% | 3.1% | 13.8% | 16.7% | – | – | – | – | – | 28.2% | 66% | – | – | –
CC(=O)O.N=C(N)c1ccc(OCc2ccc(CN)cc2)c(C(=O)c2ccccc2)c1 [Compound 9, 4-(4-Aminomethylbenzyloxy)-3-benzoylbenzamidine acetate] | – | 15.5% | – | 52.2% | 3.9% | 12.5% | – | – | – | – | – | – | – | 24.3% | 71.7% | -7.9% | -7.1% | –
CNC(=N)c1ccc(OCc2ccc(CN)cc2)cc1 [Compound 10, 4-(4-Aminomethylbenzyloxy)-N-methylbenzamidine dihydrochloride] | – | 11.6% | – | 27.9% | – | – | 2.5% | 8.7% | – | – | – | – | – | 17.9% | 54.4% | – | – | –
N=C(N)c1ccc(OCc2ccc(CCCN)cc2)c(C(=O)c2ccccc2)c1 [Compound 11, 4-[4-(3-Aminopropyl)benzyloxy]-3-benzoylbenzamidine dihydrochloride] | 32% | 71.4% | 48.8% | 82.5% | 7.5% | 14.3% | – | – | – | – | – | – | – | – | – | – | – | –
CNC(=N)c1ccc(OCc2ccc(C=CCN)cc2)c(C(=O)c2ccccc2)c1 [Compound 12, 4-[4-(3-amino-1-propenyl)benzyloxy]-3-benzoyl-N-methylbenzamidine dihydrochloride] | 23.3% | 31.6% | 46.2% | 77.8% | 8.7% | 40% | – | – | – | – | 6.1% | 18.8% | – | – | – | – | – | –
CNC(=N)c1ccc(CCc2ccc(CN)cc2[N+](=O)[O-])cc1 [Compound 13, N-Methyl-4-[2-(4-aminomethyl-2-nitrophenyl)ethyl]benzamidine dihydrochloride] | 32.3% | 35.9% | 64.2% | 95.5% | 12.1% | 66.7% | – | – | – | – | 5.7% | 29% | – | – | – | – | – | –
Br.Br.CN=C(NC)c1ccc(CCc2ccc(CN)cc2)cc1 [Compound 14, N,N'-Dimethyl-4-[2-(4-aminomethylphenyl)ethyl]benzamidine dihydrobromide] | 28.9% | 31.8% | 59% | 100% | 8.7% | 30% | 32.7% | 47.5% | – | – | – | – | -6.8% | – | – | – | – | -16.3%
NCc1ccc(CCc2ccc(C3=NCCN3)cc2)cc1 [Compound 15, 2-{4-[2-(4-Aminomethylphenyl)ethyl]phenyl}imidazoline dihydrochloride] | 22.8% | 34.7% | 49.2% | 100% | 5.9% | 25% | 10% | 56.5% | – | – | – | – | – | – | – | – | – | –
CNC(=N)c1ccc(CCc2ccc(CN)cc2)c([N+](=O)[O-])c1.Cl.Cl [Compound 16, 4-[2-(4-Aminomethylphenyl)ethyl]-N-methyl-3-nitrobenzamidine dihydrochloride] | 21.9% | 29.7% | 26% | 70.2% | 9% | 32% | 16.3% | 69.4% | – | – | – | – | – | – | – | – | – | -7.0%
CN=C(NC)c1ccc(CCc2ccc(CN)cc2OC)cc1 [Compound 17, 4-[2-(4-Aminomethyl-2-methoxyphenyl)ethyl]-N,N'-dimethylbenzamidine dihydrochloride] | – | 14.3% | – | 76.5% | 17% | 76.5% | – | – | – | – | 4.7% | 13.5% | – | 20.3% | 110% | – | – | –
